# Measured values from patent publication US9708247B2, “Modulators of the eIF2alpha pathway” (The Regents of the University of California, priority 2013, dated 2017).
# Tests used:
# auditory fear memory = assay: Cannulation and auditory fear conditioning; type: in vivo, rat; conditions: rats, infused into amygdala, vs vehicle
# Method: Male Sprague Dawley rats (275-350 g) were used for cannulation as described in Migues et al, 2010 (46). ISRIB (0.05 mg/ml, […]) was infused bilaterally into the amygdala immediately after auditory fear conditioning training. The infusion was performed with a microinjector (28 gauge) connected to a Hamilton syringe with plastic tubing at a rate of 0.4 μl/min. To allow for the solution containing ISRIB to diffuse from the tip of the cannula into the tissue, the microinjector stayed in the cannula for one additional minute. Training protocol for auditory fear conditioning consisted of a 2-min period of context A exploration, followed by one pairing of a tone (2800 Hz, 85 dB, 30 s) with a co-terminating foot shock (0.75 mA, 1 s). Rats were returned to their home cage 1 min after the shock. Test for auditory fear memory consisted of a 2 min acclimatizing period to the context B (pre-CS), followed by tone presentation (CS) (2800 Hz, 85 dB, 30 s). Freezing time was measured and percent of freezing was calculated. At the end of the experiment, cannula placement was checked by examining 50 μm brain sections stained with formal-thionin under a light microscope.
# global translation = assay: Metabolic labeling (35S-methionine incorporation) in HEK293T cells; type: cell-based, human; conditions: 100 nM thapsigargin plus 200 nM ISRIB
# Method: HEK293T cells were seeded on 12 well plates, allowed to recover overnight and treated for the indicated times with the indicated compounds. The cells were subsequently switched to media lacking methionine and cysteine supplemented with the indicated compounds and 50 μCi of ^35S-methionine (Perkin Elmer) for 20 min. Cells were lysed by addition of SDS-PAGE loading buffer. Lysates were sonicated and equal amounts were loaded on SDS-PAGE gels (BioRad). The gel was dried and radioactive methionine incorporation was detected by exposure to a phosphor-screen and visualized with a Typhoon 9400 Variable Mode Imager (GE Healthcare).
# [1] = test system: PERK signaling (ATF4, PERK, XBP1s); assay: Immunoblot analysis of PERK, ATF4 and XBP1s in HEK293T cells; type: cell-based, human
# Method: Cells were lysed in SDS-PAGE loading buffer (1% SDS, 62.5 mM Tris-HCl pH 6.8, 10% glycerol). Lysates were sonicated and equal amounts were loaded on SDS-PAGE gels (BioRad). Proteins were transferred onto nitrocellulose and probed with primary antibodies diluted in Tris-buffered saline supplemented with 0.1% Tween 20 and 5% bovine serum albumin. The following antibodies were used: CREB-2 (C-20) (1:800) (Santa Cruz Biotechnologies); PERK (D11A8) (1:1000), PERK (C33E10) (1:1000), eIF2α (9722) (1:1000), phospho-eIF2α (Ser51) (D9G8) XP (3398) (1:1000) (Cell Signaling Technology); XBP1s (C-terminus) (1:500) (BioLegend); M2 Flag (1:1000) (Sigma). An HRP-conjugated secondary antibody (Amersham) was employed to detect immune-reactive bands using enhanced chemiluminescence (SuperSignal, Thermo Scientific).
# [2] = test system: mouse embryonic fibroblasts (MEFs); assay: Polysome gradient analysis in MEFs; type: cell-based
# Method: (§1) Mouse Embryonic Fibroblasts (MEFs) or TREx-293 cells expressing eIF2α(S51D) were seeded on 150 mm plates and allowed to grow to 80% confluence. Cells were then induced with 25 nM doxycycline for 14 h and subsequently treated with the appropriate compounds for the indicated times. 100 μg/ml of cycloheximide was added to the cells for 1 min before lysis. Cells were washed twice with PBS supplemented with 100 μg/ml cycloheximide and subsequently lysed in 20 mM Tris pH 7.4, 200 mM NaCl, 15 mM MgCl, 1 mM DTT, 8% Glycerol, 100 μg/ml cycloheximide, 1% Triton X-100 and EDTA-free protease inhibitor tablets (Roche). Cells were scraped, collected, triturated with a 25^7/8 gauge needle, and the homogenate was centrifuged for 10 min at 10,000×g. The supernatant was loaded on a 10-50% sucrose gradient and sedimented in a SW40 rotor at 150,000×g for 2.4 h. The gradients were fractionated using a piston gradient fractionator (BioComp) and UV absorbance at 254 nm was monitored using a UV-Monitor (BioRad).
# eIF2α (S51D) = assay: Polysome gradient analysis in HEK293Trex cells expressing eIF2α(S51D); type: cell-based, human; conditions: 25 nM doxycycline 14 h, 200 nM ISRIB
# Method: as §1, with “The coding sequences of wild type mouse eIF2α, phosphomimetic (S51D) mutant was amplified by PCR from a mammalian expression vector (kind gift of David Ron). BamHI and EcoRI recognition sites were engineered into the primers. In addition a Kozak consensus sequence and a N-terminal FLAG epitope tag were engineered in the forward primer. […]. Mouse” for “Mouse”
# IL-6 = assay: Serum IL-6 after surgery (ELISA); type: in vivo, mouse; conditions: mice, perioperative administration, 24 h after surgery
# From the text: FIG. 26. Experimental design for measuring postsurgical cognitive dysfunction and effects of ISRIB on cognitive function; measurement of memory is a behavioral test using trace fear conditioning (TFC), which aims to establish a permanent memory in animals by using sensorial information; associative learning is presented with a neutral conditioning stimulus, paired with an aversive unconditioning stimulus (e.g. shock); freezing by the animal corresponds to the ability of the animal to retain memory from the context in which it has been trained. Separate cohorts of animals were used to assess inflammatory status 24 h after surgery. Downwards arrows represent injection points.
# FIG. 28. […] Levels were measured using an enzyme-linked immunosorbent kit.
compound,measurement,setting,value
O=C(COc1ccc(Cl)cc1)NC1CCC(NC(=O)COc2ccc(Cl)cc2)CC1 (centres unmarked) [ISRIB],"freezing to tone (CS), short-term memory",auditory fear memory; 3 h,no difference
same,"freezing to tone (CS), long-term memory","auditory fear memory; 24 h, p<0.05",significant increase
same,effect on thapsigargin-induced drop in translation,global translation,abolished
same,XBP1 mRNA splicing and XBP1s production (IRE1 branch),[1]; ER stress plus 200 nM ISRIB,persisted
same,PERK phosphorylation (mobility shift),"[1]; ER-stressed HEK293T, 200 nM ISRIB",did not inhibit the mobility shift of PERK
same,ATF4 induction after GCN2 or HRI activation,"[1]; HEK293T, cysteine/methionine starvation or HRI activator 6 μM, 5 h, 200 nM ISRIB",blocked ATF4 induction
same,production of endogenous ATF4 upon ER stress,"[1]; HEK293T, tunicamycin or thapsigargin, 200 nM ISRIB, 3 h",blocked production of endogenous ATF4
same,translational attenuation by Torin-1 (CAP-dependent initiation),"[2]; 750 nM torin-1, 200 nM ISRIB, 2 h",did not reverse the effect of Torin-1 on translation
same,ER stress-induced increase in 80S monosomes at the expense of polyribosomes,"[2]; 2 μg/ml tunicamycin, 200 nM ISRIB, 1 h",reversed (at least partially)
same,translational attenuation by eIF2α(S51D) expression,eIF2α (S51D),rescued translation
same,serum IL-6 increase after surgery,IL-6,abrogated the increase in IL6
